Results: PubChem BioAssay AID248 (DTP/NCI, 2004)
Several values for one entry are separate records, joined by “and”; a condition that tells them apart may be missing. Equal entries are not always repeated. Inconclusive results and toxic doses are left out. Rule as the data show it: active = T/C of 150% or more; inactive = T/C below 125%.

System: L1210 leukemia ip in BDF1 mice, survival T/C
Assay: NCI In Vivo Anticancer Drug Screen. Data for tumor model L1210 Leukemia (intraperitoneal) in B6D2F1 (BDF1) mice
Settings: endpoint: mean survival time, higher = longer survival
Outline: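 Transplantable tumor model; survival measured in treated vs vehicle control mice. Value = treated/control.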

[1] = dose: 100.0 mg/kg/injection, schedule: Q01DX009 (ip), vehicle: Klucel (hydroxypropylcellulose) (HPC)
[2] = dose: 200.0 mg/kg/injection, schedule: Q01DX009 (ip), vehicle: Klucel (hydroxypropylcellulose) (HPC)
[3] = dose: 400.0 mg/kg/injection, schedule: Q01DX009 (ip), vehicle: Klucel (hydroxypropylcellulose) (HPC)
[4] = dose: 50.0 mg/kg/injection, schedule: Q01DX009 (ip), vehicle: saline with Tween-80
[5] = dose: 100.0 mg/kg/injection, schedule: Q04DX003 (ip), vehicle: saline with Tween-80
[6] = dose: 200.0 mg/kg/injection, schedule: Q01DX009 (ip), vehicle: saline with Tween-80
[7] = dose: 200.0 mg/kg/injection, schedule: Q04DX003 (ip), vehicle: saline with Tween-80
[8] = dose: 400.0 mg/kg/injection, schedule: Q04DX003 (ip), vehicle: saline with Tween-80
[9] = dose: 100.0 mg/kg/injection, schedule: Q04DX002 (ip), vehicle: saline
[10] = dose: 200.0 mg/kg/injection, schedule: Q04DX002 (ip), vehicle: saline
[11] = dose: 400.0 mg/kg/injection, schedule: Q04DX002 (ip), vehicle: saline
[12] = dose: 50.0 mg/kg/injection, schedule: Q01DX001 (ip), vehicle: saline
[13] = dose: 100.0 mg/kg/injection, schedule: Q01DX009 (ip), vehicle: saline
[14] = dose: 200.0 mg/kg/injection, schedule: Q01DX009 (ip), vehicle: saline
[15] = dose: 400.0 mg/kg/injection, schedule: Q01DX009 (ip), vehicle: saline

Measured: T/C

CCN1CCCC(Nc2nc(Nc3cc(Cl)cc(Cl)c3)nc3cc(Cl)ccc23)C1 (stereo not given)
inactive: dose: 100.0 mg/kg/injection, schedule: Q04DX003 (ip), vehicle: saline sonified 95 % of control | dose: 200.0 mg/kg/injection, schedule: Q04DX003 (ip), vehicle: saline sonified 97 % of control | dose: 400.0 mg/kg/injection, schedule: Q04DX003 (ip), vehicle: saline sonified 106 % of control

O=c1oc(-c2ccccc2NS(=O)(=O)c2ccccc2)nc2cc(Cl)ccc12
inactive: [1] 103 % of control | [2] 104 % of control | [3] 110 % of control

O=[N+]([O-])c1cccc2c1CCCC2
inactive: dose: 12.5 mg/kg/injection, schedule: Q01DX009 (ip), vehicle: saline with Tween-80 98 % of control | dose: 25.0 mg/kg/injection, schedule: Q01DX009 (ip), vehicle: saline with Tween-80 93 % of control | [4] 98 % of control | [5] 107 % of control | [6] 87 % of control | [7] 105 % of control | dose: 400.0 mg/kg/injection, schedule: Q01DX009 (ip), vehicle: saline with Tween-80 105 % of control | [8] 96 % of control

CCCCCCCCCCCCCCCCOc1ccc(S(=O)(=O)Nc2cc(C(=O)OC)cc(C(=O)OC)c2)cc1N
inactive: [5] 97 % of control | [7] 90 % of control | [8] 90 % of control

O=[N+]([O-])c1ccc(C[n+]2ccc3ccccc3c2)cc1
inactive: dose: 12.5 mg/kg/injection, schedule: Q01DX009 (ip), vehicle: saline 96 % of control | dose: 12.5 mg/kg/injection, schedule: Q04DX003 (ip), vehicle: saline 97 % of control | dose: 25.0 mg/kg/injection, schedule: Q01DX009 (ip), vehicle: saline 95 % of control | dose: 25.0 mg/kg/injection, schedule: Q04DX003 (ip), vehicle: saline 92 % of control | dose: 50.0 mg/kg/injection, schedule: Q01DX009 (ip), vehicle: saline 101 % of control | dose: 50.0 mg/kg/injection, schedule: Q04DX003 (ip), vehicle: saline 92 % of control

O=C(O)CSC(C(=O)O)c1ccccc1 (stereo not given)
inactive: [4] 93 % of control | dose: 100.0 mg/kg/injection, schedule: Q01DX009 (ip), vehicle: saline with Tween-80 92 % of control | [5] 94 % of control | [6] 93 % of control | [7] 97 % of control

COc1cc(/C=N/N(c2ccccc2)C2CCS(=O)(=O)C2)ccc1O (stereo not given)
inactive: [9] 93 % of control | [10] 101 % of control | [11] 93 % of control

Cc1ccn(C)n1
inactive: [9] 103 % of control | [10] 97 % of control | [11] 93 % of control

OC(c1ccccc1)(c1ccccc1)C1CCC1
inactive: dose: 50.0 mg/kg/injection, schedule: Q01DX009 (ip), vehicle: Klucel (hydroxypropylcellulose) (HPC) 100 % of control | dose: 75.0 mg/kg/injection, schedule: Q01DX001 (ip), vehicle: Klucel (hydroxypropylcellulose) (HPC) 95 % of control | [1] 94 % of control | dose: 150.0 mg/kg/injection, schedule: Q01DX001 (ip), vehicle: Klucel (hydroxypropylcellulose) (HPC) 101 % of control | dose: 300.0 mg/kg/injection, schedule: Q01DX001 (ip), vehicle: Klucel (hydroxypropylcellulose) (HPC) 98 % of control

CCOC(=O)C(C)(c1[nH]c2ccccc2c1C)c1[nH]c2ccccc2c1C
inactive: [12] 103 % of control | dose: 100.0 mg/kg/injection, schedule: Q01DX001 (ip), vehicle: saline 103 % of control | dose: 200.0 mg/kg/injection, schedule: Q01DX001 (ip), vehicle: saline 95 % of control | dose: 400.0 mg/kg/injection, schedule: Q01DX001 (ip), vehicle: saline 89 % of control

COc1cc(CCCC(=O)O)c(OC)c(C)c1C
inactive: dose: 100.0 mg/kg/injection, schedule: Q01DX001 (ip), vehicle: Klucel (hydroxypropylcellulose) (HPC) 93 % of control | [1] 97 % of control | dose: 200.0 mg/kg/injection, schedule: Q01DX001 (ip), vehicle: Klucel (hydroxypropylcellulose) (HPC) 98 % of control | [2] 103 % of control | dose: 400.0 mg/kg/injection, schedule: Q01DX001 (ip), vehicle: Klucel (hydroxypropylcellulose) (HPC) 95 % of control | [3] 101 % of control

O=C1OC(c2cccc(Cl)c2)=N/C1=C\c1ccccc1O
inactive: [1] 94 % of control | [3] 94 % of control

CC1(C)N=C(N)N=C(N)N1c1cccc(CCCCc2ccccc2)c1
inactive: dose: 5.0 mg/kg/injection, schedule: Q01DX001 (ip), vehicle: saline 86 % of control | dose: 10.0 mg/kg/injection, schedule: Q01DX001 (ip), vehicle: saline 92 % of control | dose: 20.0 mg/kg/injection, schedule: Q01DX001 (ip), vehicle: saline 103 % of control | dose: 25.0 mg/kg/injection, schedule: Q01DX001 (ip), vehicle: saline with Tween-80 97 % of control | dose: 40.0 mg/kg/injection, schedule: Q01DX001 (ip), vehicle: saline 92 % of control | dose: 50.0 mg/kg/injection, schedule: Q01DX001 (ip), vehicle: saline with Tween-80 104 % of control | [12] 112 % of control | dose: 100.0 mg/kg/injection, schedule: Q01DX001 (ip), vehicle: saline with Tween-80 106 % of control

CC(N)(CO)CO
inactive: [13] 114 % of control | [9] 90 % of control | [14] 122 % of control | [10] 103 % of control | [15] 100 % of control | [11] 103 % of control

COc1ccc(CSc2ncnc3nc[nH]c23)cc1
inactive: dose: 6.0 mg/kg/injection, schedule: Q01DX015 (ip), vehicle: carboxymethylcellulose (CMC) 92 % of control | dose: 12.0 mg/kg/injection, schedule: Q01DX015 (ip), vehicle: carboxymethylcellulose (CMC) 91 % of control | dose: 25.0 mg/kg/injection, schedule: Q01DX015 (ip), vehicle: carboxymethylcellulose (CMC) 101 % of control | dose: 50.0 mg/kg/injection, schedule: Q01DX015 (ip), vehicle: carboxymethylcellulose (CMC) 101 % of control | dose: 200.0 mg/kg/injection, schedule: Q01DX015 (ip), vehicle: carboxymethylcellulose (CMC) 111 % of control

Nc1ccc2c(c1)sc1ccccc12
inactive: [5] 88 % of control | [7] 91 % of control

O=[N+]([O-])c1cc(S(=O)(=O)O)c(Nc2ccccc2)cc1NCCO
inactive: dose: 100.0 mg/kg/injection, schedule: Q04DX003 (ip), vehicle: Klucel (hydroxypropylcellulose) (HPC) 91 % of control | dose: 200.0 mg/kg/injection, schedule: Q04DX003 (ip), vehicle: Klucel (hydroxypropylcellulose) (HPC) 91 % of control | dose: 400.0 mg/kg/injection, schedule: Q04DX003 (ip), vehicle: Klucel (hydroxypropylcellulose) (HPC) 90 % of control

COc1cc[n+]([O-])cc1
inactive: [13] 103 % of control | dose: 100.0 mg/kg/injection, schedule: Q01DX Z (ip), vehicle: saline 102 % of control and 106 % of control | dose: 100.0 mg/kg/injection, schedule: Q04DX003 (ip), vehicle: saline 121 % of control | dose: 150.0 mg/kg/injection, schedule: Q01DX Z (ip), vehicle: saline 103 % of control and 107 % of control | [14] 100 % of control | dose: 200.0 mg/kg/injection, schedule: Q04DX003 (ip), vehicle: saline 114 % of control | dose: 225.0 mg/kg/injection, schedule: Q01DX Z (ip), vehicle: saline 95 % of control and 97 % of control | dose: 300.0 mg/kg/injection, schedule: Q01DX Z (ip), vehicle: saline 92 % of control and 106 % of control | [15] 99 % of control | dose: 400.0 mg/kg/injection, schedule: Q04DX003 (ip), vehicle: saline 95 % of control
